For assay [1], the system named is Mycobacterium tuberculosis. The experiment in a line: Antimycobacterial activity against Mycobacterium tuberculosis H37Rv by agar dilution method. The format is functional. (In agar dilution the substance is mixed into plates at graded concentrations.)
The next assay has as its system Vero. Description: Cytotoxicity against Vero cells after 72 hrs by MTT assay. Type of assay: cell-based. The following applies: Chlorocebus sabaeus.
The nature of assay [2]: Selectivity index, ratio of IC50 for Vero cells to MIC for Mycobacterium tuberculosis H37Rv. Type of assay: functional.

In ChEMBL document CHEMBL1144609, “N-Hydroxythiosemicarbazones: synthesis and in vitro antitubercular activity” (Bioorg Med Chem Lett, 2007) one finds MIC, IC50 and Selectivity index data, which are given here for 21 compounds.

pIC50: −log10 of the molar value. ≈ marks a conversion by molar mass, not a printed value.

One may read the MIC as the smallest concentration in the dilution series that meets the test's criterion for growth inhibition. Read a high MIC as a less susceptible organism. The compound `CN(C)c1ccc(/C=N/NC(=S)NO)cc1` yielded an MIC in assay [1] of 52.5 µM (≈ 12.5 µg/mL). The same measure, in the same setting: under `COc1ccc(/C=N/NC(=S)NO)cc1` stands 14.9 µM (≈ 3.37 µg/mL); under `Cc1ccc(/C=N/NC(=S)NO)cc1`, 13 µM (≈ 2.71 µg/mL); under `ONC(=S)N/N=C/c1ccc(Cl)cc1`, 13 µM (≈ 2.99 µg/mL). Same read-out and setting: under `ONC(=S)N/N=C/c1ccccc1O` stands 29.6 µM (≈ 6.25 µg/mL). Broadly, the pIC50 is the IC50 on a negative log10 scale, so that one unit is a factor of ten. With `O=[N+]([O-])c1ccc(/C=N/NC(=S)NO)cc1`, the pIC50 in the assay with Vero was less than 3.58. Moreover, in assay [1], the MIC came to 6.49 µM (≈ 1.56 µg/mL).

In assay [1], `C/C(=N\NC(=S)NO)c1ccccc1` had an MIC of 14.9 µM (≈ 3.13 µg/mL). `C/C(=N\NC(=S)NO)c1ccc(C)cc1` showed a pIC50 in the assay with Vero of less than 3.55. The lowest concentration to inhibit growth in assay [1] (MIC) was 6.98 µM (≈ 1.56 µg/mL). With `C/C(=N\NC(=S)NO)c1ccc(Cl)cc1`, the pIC50 in the assay on Vero is less than 3.59. The MIC in assay [1] turned out to be 3.2 µM (≈ 0.78 µg/mL). The like results for `C/C(=N\NC(=S)NO)c1ccc([N+](=O)[O-])cc1` were, in that order, less than 3.61 and 0.78 µM (≈ 0.198 µg/mL). In the case of `ONC(=S)N/N=C(\c1ccccc1)c1ccc(Br)cc1`, the Selectivity index in assay [2] is on record as more than 625. Moreover, the negative logarithm of the IC50 (pIC50) in the assay with Vero was less than 3.75. Further, the MIC in assay [1] is 0.28 µM (≈ 0.0981 µg/mL). With `O=C1Nc2ccc(F)cc2/C1=N/NC(=S)NO`, in assay [1], the MIC stood at 24.6 µM (≈ 6.25 µg/mL). In assay [1], `COc1cc(/C=N/NC(=S)NO)ccc1O` came in with an MIC of 27.2 µM (≈ 6.57 µg/mL). `ONC(=S)N/N=C/c1ccccc1` showed an MIC in assay [1] of 64 µM (≈ 12.5 µg/mL). The same measure, in the same setting: under `ONC(=S)N/N=C/c1ccc(O)cc1` stands 29.6 µM (≈ 6.25 µg/mL). For the compound `O=[N+]([O-])c1ccccc1/C=N/NC(=S)NO`, in the assay with Vero, the pIC50 was less than 3.58. The same compound registered an MIC in assay [1] of 6.49 µM (≈ 1.56 µg/mL).

With `C/C(=N\NC(=S)NO)c1ccccc1O`, the MIC in assay [1] amounted to 13.9 µM (≈ 3.13 µg/mL). This lies in the double-digit micromolar range. The same measure, in the same setting: as for `O=C1Nc2ccccc2/C1=N/NC(=S)NO`, the figure is 64 µM (≈ 15.1 µg/mL). On to `CC[C@@H](CO)NCCN[C@@H](CC)CO` [ETHAMBUTOL], for which the pIC50 in the assay on Vero was less than 3.51. The compound further had an MIC in assay [1] of 15.3 µM (≈ 3.13 µg/mL). `NNC(=O)c1ccncc1` [ISONIAZID] gave a pIC50 in the assay on Vero of less than 3.34. In assay [1], this compound gave an MIC of 0.72 µM (≈ 0.0987 µg/mL).

As for `CO[C@H]1/C=C/O[C@@]2(C)Oc3c(C)c(O)c4c(O)c(c(/C=N/N5CCN(C)CC5)c(O)c4c3C2=O)NC(=O)/C(C)=C\C=C\[C@H](C)[C@H](O)[C@@H](C)[C@@H](O)[C@@H](C)[C@H](OC(C)=O)[C@@H]1C` [RIFAMPIN], in the assay with Vero, the pIC50 was less than 4.12. The compound further had an MIC in assay [1] of 0.24 µM (≈ 0.198 µg/mL).
